The subject of assay [1] is NFAT3. In kind it is cell-based, rat. The note with it: 10 uM.
Assay [2] relates to SINV-infected differentiated CSM14.1 cells. In kind it is cell-based, rat. Conditions: 10 uM.
For assay [3], the system named is Sindbis virus (SINV, TE strain). The assay is classed as cell-based.

`CCCOc1ccccc1-c1nc2nn[nH]c2c(=O)[nH]1` [zaprinast]: in assay [1], the “cytoplasmic NFAT3 (Western blot)” value was “remained constant at all timepoints”, the “effect on NFAT3 activation” value is “no effect” and the “nuclear NFAT3 (Western blot)” value is reported as “remained constant at all timepoints”. Further, in assay [2], the “viability / survival of infected cells” value is “did not detectably affect cell survival”. Also, the “viral titers / viral replication versus untreated SINV infection (in words)” value in assay [3] is “tended to slightly increase viral titers at most time points”.

These data come from patent publication US20150224170A1 (priority 2010, published 2015).
